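Following 48 hours of exposure in 96-well plates, responses at five concentrations were used to interpolate endpoints linearly. Abbreviation: GI50, concentration required for 50% inhibition of growth. TGI: total growth inhibition.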
Assays:
Assay in all cases: DTP human tumour cell line panel, 48 h
UO-31 renal = system: UO-31 renal
CCRF-CEM leukemia = system: CCRF-CEM leukemia
COLO 205 colon = system: COLO 205 colon
SF-268 CNS = system: SF-268 CNS
SN12C renal = system: SN12C renal
MDA-MB-468 breast = system: MDA-MB-468 breast
SK-MEL-5 melanoma = system: SK-MEL-5 melanoma
EKVX NSCLC = system: EKVX NSCLC
IGROV1 ovarian = system: IGROV1 ovarian
NCI-H23 lung = system: NCI-H23 lung
T-47D breast = system: T-47D breast
KM12 colon = system: KM12 colon
MOLT-4 leukemia = system: MOLT-4 leukemia
HCT-116 colon = system: HCT-116 colon
HOP-92 NSCLC = system: HOP-92 NSCLC
MCF7 breast = system: MCF7 breast
SNB-75 CNS = system: SNB-75 CNS
TK-10 renal = system: TK-10 renal
OVCAR-8 ovarian = system: OVCAR-8 ovarian
786-0 renal = system: 786-0 renal
SF-539 CNS = system: SF-539 CNS
PC-3 prostate = system: PC-3 prostate
HCT-15 colon = system: HCT-15 colon
HL-60(TB) leukemia = system: HL-60(TB) leukemia
ACHN renal = system: ACHN renal
SNB-19 CNS = system: SNB-19 CNS
NCI-H522 lung = system: NCI-H522 lung
BT-549 breast = system: BT-549 breast
MDA-MB-435 = system: MDA-MB-435

`O=C1Nc2cc(Cl)ccc2/C1=C/c1cccc(OCc2ccccc2)c1` showed a GI50 (UO-31 renal) of 2.45 µM, a TGI (UO-31 renal) of 18.6 µM and a GI50 (CCRF-CEM leukemia) of 2.86 µM. For the same molecule, the TGI (CCRF-CEM leukemia) was 13.1 µM, the GI50 (COLO 205 colon) was 13.8 µM and the TGI (COLO 205 colon) was 30.2 µM. It also gave a GI50 (SF-268 CNS) of 3.26 µM, a TGI (SF-268 CNS) of 15.1 µM and a GI50 (SN12C renal) of 6.93 µM. The TGI (SN12C renal) was 20.3 µM, the GI50 (MDA-MB-468 breast) was 2.43 µM and the TGI (MDA-MB-468 breast) was 14.1 µM. The GI50 (SK-MEL-5 melanoma) was 3.17 µM, the TGI (SK-MEL-5 melanoma) was 11.4 µM and the GI50 (EKVX NSCLC) was 5.35 µM. The TGI (EKVX NSCLC) was 23.7 µM, the GI50 (IGROV1 ovarian) was 3.43 µM and the TGI (IGROV1 ovarian) was 18.3 µM. It also gave a GI50 (NCI-H23 lung) of 4.23 µM, a TGI (NCI-H23 lung) of 21.5 µM and a GI50 (T-47D breast) of 4.73 µM. For the same molecule, the TGI (T-47D breast) was 30 µM, the GI50 (KM12 colon) was 3.69 µM and the TGI (KM12 colon) was 14.1 µM. It also gave a GI50 (MOLT-4 leukemia) of 2.69 µM, a TGI (MOLT-4 leukemia) of 10.9 µM and a GI50 (HCT-116 colon) of 2.43 µM. For the same molecule, the TGI (HCT-116 colon) was 12.7 µM, the GI50 (HOP-92 NSCLC) was 1.33 µM and the TGI (HOP-92 NSCLC) was 9.75 µM. The GI50 (MCF7 breast) was 1.67 µM, the TGI (MCF7 breast) was 12.9 µM and the GI50 (SNB-75 CNS) was 3.23 µM. For the same molecule, the TGI (SNB-75 CNS) was 21.2 µM, the GI50 (TK-10 renal) was 16.2 µM and the TGI (TK-10 renal) was 35.9 µM. It also gave a GI50 (OVCAR-8 ovarian) of 6.86 µM, a TGI (OVCAR-8 ovarian) of 25.3 µM and a GI50 (786-0 renal) of 3.12 µM. It also gave a TGI (786-0 renal) of 15.9 µM, a GI50 (SF-539 CNS) of 2.27 µM and a TGI (SF-539 CNS) of 5.49 µM. The GI50 (PC-3 prostate) was 4.67 µM, the TGI (PC-3 prostate) was 20.5 µM and the GI50 (HCT-15 colon) was 2.58 µM. The TGI (HCT-15 colon) was 13.3 µM, the GI50 (HL-60(TB) leukemia) was 2.23 µM and the TGI (HL-60(TB) leukemia) was 6.49 µM. For the same molecule, the GI50 (ACHN renal) was 3.97 µM, the TGI (ACHN renal) was 16.1 µM and the GI50 (SNB-19 CNS) was 10.2 µM. It also gave a TGI (SNB-19 CNS) of 25.7 µM, a GI50 (NCI-H522 lung) of 2.93 µM and a TGI (NCI-H522 lung) of 12.2 µM. The GI50 (BT-549 breast) was 2.44 µM, the TGI (BT-549 breast) was 11.2 µM and the GI50 (MDA-MB-435) was 2.04 µM. For the same molecule, the TGI (MDA-MB-435) was 4.45 µM.

— PubChem BioAssay (NCI)
